Experimental data as given in article PMC7365463, “Oxfendazole mediates macrofilaricidal efficacy against the filarial nematode Litomosoides sigmodontis in vivo and inhibits Onchocerca spec. motility in vitro” (PLoS Neglected Tropical Diseases, 2020).
Like-named read-outs stand apart in the source and are kept apart here.

Legend:
[1] = tested on: Onchocerca gutturosa adult male worms; assay: O. gutturosa adult worm MTT/formazan viability assay; conditions: 120 h
[2] = tested on: Brugia pahangi; conditions: jirds, necropsy 5 weeks p.t., ref Surin 1990 (Ref. 11), cited from earlier work
[3] = tested on: Onchocerca lienalis microfilariae; assay: O. lienalis microfilariae 5-day motility assay; conditions: 120 h
[4] = tested on: Litomosoides sigmodontis; assay: Patent L. sigmodontis infection in jirds (adult worms, microfilaremia, embryogenesis); conditions: for jirds with few microfilariae in the peripheral blood: between weeks 14 and 16 after treatment
[5] = tested on: Onchocerca gutturosa adult male worms; assay: O. gutturosa adult male worm 5-day motility assay
[6] = tested on: Brugia pahangi; parameters: method as in Reddy 1983 (Ref. 15); conditions: L3 (SC), Mastomys natalensis, patent phase, necropsy 43 days p.t., ref Reddy 1983 (Ref. 15), cited from earlier work
[7] = rats; cited from earlier work
[8] = tested on: Onchocerca lupi; parameters: method as in PMID 29377880; conditions: Onchocerca lupi-infected dogs; cited from earlier work
[9] = Plasma pharmacokinetics in mice (oral and subcutaneous); format: in vivo, BALB/c mice; conditions: for AUC(0-t) / Cmax / Tmax / half-life: female, BALB/c, mouse, plasma
Procedure: Female BALB/c mice (6 to 9-weeks old) were used to determine the plasma concentrations of oxfendazole. Animals were allocated to groups of three animals per dose, such that the mean weight of animals in each group was similar. All animals had access to a certified rodent diet (Beijing Keao […] Co, Ltd) and water ad libitum. In this study, all animals were fasted 12 h before dosing and returned to food 4 h post dose. Commercially available oxfendazole (Sigma Aldrich and Dolthene, Merial) was administered to animals. […] A commercially available formulation of oxfendazole, Dolthene, was diluted in corn oil and administered by oral gavage. After administration of the drug substances by oral gavage, blood samples were collected from each animal via the saphenous or mandibular veins at 0.25, 0.5, 1, 2, 4, 8, 12 and 24 h post dosing. For administration via the sc route, samples were collected from each animal 1, 3, 6, 9, 12, 18, 24, 36, 48, 72, 96, and 120 h post dosing. All samples were transferred into plastic tubes containing K2-EDTA (0.5 M) as an anti-coagulant and stored on ice until plasma preparation by centrifugation at 5°C (3000 g, 15 min). Analysis was conducted by LC-MS/MS (API 4000). Mobile phases were mixtures of acetonitrile (ACN) and water to which formic acid and 1 mM NH4OAc were added (0.025%, v/v). The ratio ACN/water was 5:95 (v/v) in the mobile phase A and 95:5 (v/v) in the mobile phase B. […] Electrospray positive ionization with selected ion MS/MS monitoring was used for the determination of oxfendazole: m/z 316.0/159.1.

[10] = tested on: mammalian tubulin; parameters: method as in PMID 6712717, PMID 1554382; conditions: cited from earlier work
[11] = tested on: Litomosoides sigmodontis; parameters: method as in Reddy 1983 (Ref. 15); conditions: L3 (mite), Mastomys natalensis, patent phase, necropsy 43 days p.t., ref Reddy 1983 (Ref. 15), cited from earlier work
[12] = PO, nominal dose 5 mg/kg (administered 4.8)
[13] = PO, nominal dose 25 mg/kg (administered 26.3)
[14] = SC, nominal dose 1 mg/kg (administered 1.0)
[15] = SC, nominal dose 25 mg/kg (administered 27.5)

In the case of `COC(=O)Nc1nc2ccc([S+]([O-])c3ccccc3)cc2[nH]1` (stereo not drawn) [oxfendazole], the “MTT Reduction (%)” value ([1]; 1.25 x 10^-5 M) is reported as 12%, the “MTT Reduction (%)” value ([1]; 3.1 x 10^-6 M) is reported as 17% and the “MTT Reduction (%)” value ([1]; 5.0 x 10^-5 M) is reported as 11%. The “MTT Reduction (%)” value ([1]; 7.8 x 10^-7 M) was 7%, the “Reduction of worm burden” value ([2]; 15Ad (IP), SC 50-25-12.5mg/kg 5 cons. days, 4 days p.i.) was 100% and the “Reduction of worm burden” value ([2]; 50L3 (IP), SC 25mg/kg 5 cons. days, 70 days p.i.) was 93.5%. The “Reduction of worm burden” value ([2]; 50L3 (IP), SC 50mg/kg 5 cons. days, 70 days p.i.) was 100%, the microfilariae motility decrease ([3]; 1.25·10^−5 M) was 53% and the microfilariae motility decrease ([3]; 5·10^−5 M) was 67%. For the same compound, the “effect on microfilariae motility” value ([3]; concentrations lower than 1.25·10^−5 M) was “No effect”, the “jirds with few microfilariae in the peripheral blood” value ([4]; 2 x 5 mg/kg BID PO 10 days) was “one jird out of four” and the “jirds with few microfilariae in the peripheral blood” value ([4]; 2 x 12.5 mg/kg BID PO 10 days) was “one jird out of five”. For the same compound, the “embryogenesis in recovered female worms (embryogram)” value ([4]; jirds, 2 x 5 mg/kg BID PO 10 days, 16 weeks after treatment start) was “embryogenesis was inhibited”, the “animals with complete clearance of adult worms” value ([4]; jirds, PO BID 2 x 5 mg/kg for 10 days from 12 wpi, 16 weeks after treatment start) was “two animals out of four” and the “animals with complete clearance of adult worms” value ([4]; jirds, PO BID 2 x 12.5 mg/kg for 10 days from 12 wpi, 16 weeks after treatment start) was “four animals out of five”. The “microfilariae cleared from the peripheral blood” value ([4]; jirds, both oxfendazole groups (2 x 12.5 and 2 x 5 mg/kg BID PO 10 days), 3 weeks after treatment) was “more than 99%”, the “Motility Reduction (%)” value ([5]; 1.25 x 10^-5 M, 24 h) was 10% and the “Motility Reduction (%)” value ([5]; 1.25 x 10^-5 M, 48 h) was 3%. The “Motility Reduction (%)” value ([5]; 1.25 x 10^-5 M, 72 h) was 23%, the “Motility Reduction (%)” value ([5]; 1.25 x 10^-5 M, 96 h) was 31% and the “Motility Reduction (%)” value ([5]; 1.25 x 10^-5 M, 120 h) was 40%. For the same compound, the “Motility Reduction (%)” value ([5]; 3.1 x 10^-6 M, 24 h) was 10%, the “Motility Reduction (%)” value ([5]; 3.1 x 10^-6 M, 48 h) was 5% and the “Motility Reduction (%)” value ([5]; 3.1 x 10^-6 M, 72 h) was 33%. The “Motility Reduction (%)” value ([5]; 3.1 x 10^-6 M, 96 h) was 31%, the “Motility Reduction (%)” value ([5]; 3.1 x 10^-6 M, 120 h) was 40% and the “Motility Reduction (%)” value ([5]; 5.0 x 10^-5 M, 24 h) was 16%. The “Motility Reduction (%)” value ([5]; 5.0 x 10^-5 M, 48 h) was 9%, the “Motility Reduction (%)” value ([5]; 5.0 x 10^-5 M, 72 h) was 29% and the “Motility Reduction (%)” value ([5]; 5.0 x 10^-5 M, 96 h) was 33%. The “Motility Reduction (%)” value ([5]; 5.0 x 10^-5 M, 120 h) was 44%, the “Motility Reduction (%)” value ([5]; 7.8 x 10^-7 M, 24 h) was 4% and the “Motility Reduction (%)” value ([5]; 7.8 x 10^-7 M, 48 h) was 5%. For the same compound, the “Motility Reduction (%)” value ([5]; 7.8 x 10^-7 M, 72 h) was 20%, the “Motility Reduction (%)” value ([5]; 7.8 x 10^-7 M, 96 h) was 31% and the “Motility Reduction (%)” value ([5]; 7.8 x 10^-7 M, 120 h) was 38%. For the same compound, the “Reduction of worm burden” value ([6]; SC 100mg/kg 5 cons. days) was 0%, the “Reduction of worm burden” value ([6]; per os 150mg/kg 5 cons. days) was 33% and the “subacute toxicity, behavioral effects” value [7] was “did not raise safety concerns”. For the same compound, the dermal microfilariae numbers [8] was “no significant decrease in dermal microfilariae numbers”, the “Cmax oral versus sc” value ([9]; 25 mg/kg, higher in the oral treated group) was “about 6 times” and the AUC(0-t) [9, 12] was 14700 ng·h/mL. The Cmax [9, 12] was 2530 ng/mL, the Tmax [9, 12] was 1.67 h and the half-life ([9]; PO, nominal dose 5 mg/kg (administered 4.8), read-out: T1/2 (converted)) was 2.87 h. The AUC(0-t) [9, 13] was 50300 ng·h/mL, the Cmax [9, 13] was 8590 ng/mL and the Tmax [9, 13] was 2 h. It also gave a half-life ([9]; PO, nominal dose 25 mg/kg (administered 26.3), read-out: T1/2 (converted)) of 1.87 h, an AUC(0-t) [9, 14] of 1280 ng·h/mL and a Cmax [9, 14] of 131 ng/mL. For the same compound, the Tmax [9, 14] was 1.67 h, the half-life ([9]; SC, nominal dose 1 mg/kg (administered 1.0), read-out: T1/2 (converted)) was 24.8 h and the AUC(0-t) [9, 15] was 20800 ng·h/mL. It also gave a Cmax [9, 15] of 1450 ng/mL, a Tmax [9, 15] of 2.33 h and a half-life ([9]; SC, nominal dose 25 mg/kg (administered 27.5), read-out: T1/2 (converted)) of 76 h. For the same compound, the Cmax ([9]; oral administration of 5 mg/kg) was 8 µM, the Cmax ([9]; oral administration of 25 mg/kg) was 27 µM and the Tmax ([9]; other: oral and sc, all groups (oral and sc)) was roughly 2 h. The half-life ([9]; other: oral and sc, both routes of administration, read-out: half-life T1/2 during the first 12 h (converted)) was roughly 2 h, the “AUC0-last oral versus sc” value ([9]; higher when administered orally) was 2.4 times and the “terminal half-life sc versus T1/2 by oral route” value ([9]; terminal phase starting 12 h after dosing, longer for sc) was roughly 40 times. The “affinity to mammalian tubulin” value [10] was “weak affinity”, the “Reduction of worm burden” value ([11]; SC 100mg/kg 5 cons. days) was 100% and the “Reduction of worm burden” value ([11]; per os 150mg/kg 5 cons. days) was 0%.
